Target: T1, GLYT1 subtype of the glycine transporter (Rattus norvegicus, UniProt P28572)
T1 construct: C6 glioma cell expressing GLYT1 subtype of the glycine transporter; host or cells: C6 glioma cells
T1 sequence (P28572 1-638): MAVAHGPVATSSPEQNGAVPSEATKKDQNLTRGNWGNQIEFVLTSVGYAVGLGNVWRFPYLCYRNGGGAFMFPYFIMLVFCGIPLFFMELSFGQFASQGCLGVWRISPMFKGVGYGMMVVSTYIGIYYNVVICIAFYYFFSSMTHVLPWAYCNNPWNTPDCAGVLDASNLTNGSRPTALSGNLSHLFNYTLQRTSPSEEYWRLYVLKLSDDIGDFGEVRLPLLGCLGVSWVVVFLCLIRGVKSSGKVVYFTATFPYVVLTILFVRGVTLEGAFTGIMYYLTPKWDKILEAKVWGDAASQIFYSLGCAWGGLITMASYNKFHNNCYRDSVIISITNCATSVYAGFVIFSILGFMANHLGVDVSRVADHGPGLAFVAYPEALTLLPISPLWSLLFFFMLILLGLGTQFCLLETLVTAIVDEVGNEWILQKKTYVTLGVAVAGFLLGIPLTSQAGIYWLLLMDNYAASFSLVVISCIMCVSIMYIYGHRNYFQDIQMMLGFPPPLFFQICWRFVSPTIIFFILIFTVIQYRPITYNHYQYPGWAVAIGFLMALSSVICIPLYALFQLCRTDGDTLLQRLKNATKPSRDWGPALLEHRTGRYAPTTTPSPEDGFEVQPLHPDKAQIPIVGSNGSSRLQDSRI
Assay: [3H]-glycine uptake assay in C6 glioma cells (action of inhibiting glycine transporter)
Assay type: cell-based
Settings: 20 min at 37° C., read-out: GLYT-inhibiting activity IC50
Experimental: 1. Action of Inhibiting Glycine Transporter
C6 glioma cell (American Type Culture Collection) was cultured in DMEM containing 10% fetal bovine serum, 100 units/ml penicillin G and 0.1 mg/ml streptomycin sulfate in a CO2 incubator under conditions of 5% CO2 and 37° C.
[^3H]-glycine uptake was performed by the method of Gomeza, et al.
C6 glioma cells were plated out at a concentration of 2×10^4 cells/well in a 96-well plate (Culturplate, Packard Co.), for culturing for 2 days. Subsequently, [^3H]-glycine uptake was tested. The cell was rinsed once in a buffer (150 mM NaCl, 5 mM KCl, 1 mM CaCl2, 1 mM MgCl2, 10 mM glucose, 5 mM L-alanine, 10 mM Hepes-Na, pH 7.4), followed by subsequent addition of the buffer, for incubation at 37° C. for 10 minutes.
After incubation, the buffer was exchanged to a reaction buffer including [^3H]-glycine (about 0.2 μM, 41 Ci/mmol, New England Nuclear)and a compound to be assessed, for incubation at 37° C. for another 20 minutes. After 20-min reaction, the reaction mixture was rinsed in ice-cold PBS (phosphate buffered saline). The cell was dissolved in 0.1N NaOH solution, to assay the radioactivity incorporated with a liquid scintillation counter. The specific incorporation was defined as a portion substituted with 3 mM sarcosine in the total incorporation. The test compound was assessed by determining the incorporation-inhibiting ratio of the specific incorporation.
Work on CCc1nnc(-c2ccc(-c3ccccc3)cc2)n1-c1ccccc1OC [Compound 3, 3-(biphenyl-4-yl)-5-ethyl-4-(2-methoxyphenyl)-4H-1,2,4-triazole, reference compound] yielded an IC50 of 350 nM.
Work on CC(C)c1nnc(-c2ccc(-c3ccccc3)nc2)n1-c1c(F)cccc1F [Example 1, 5-[4-(2,6-Difluorophenyl)-5-isopropyl-4H-triazol-3-yl]-2-phenylpyridine] yielded an IC50 of 140 nM.
For CCc1nnc(-c2ccc(-c3ccccc3)cc2)n1-c1ccccc1Oc1cccnc1 [Example 279], the IC50 was 4600 nM.
Compound COCCCc1nnc(-c2ccc(-c3ccccc3)nc2)n1-c1cccc(C#N)c1C [Example 5, 3-[3-(3-Methoxypropyl)-5-(6-phenylpyridin-3-yl)-4H-1,2,4-triazol-4-yl]-2-methylbenzonitrile] has an IC50 of 410 nM.
CN(CCCSc1nnc(-c2ccc(-c3ccccc3)cc2)n1-c1ccccc1F)CC(=O)O [Example 157] showed an IC50 of 1500 nM.
Cc1nnc(-c2ccc(-c3ccccc3)cc2)n1-c1ccccc1[N+](=O)[O-] [Example 256] showed an IC50 of 86 nM.
Compound CN(CC1CCCO1)c1nnc(-c2ccc(-c3ccccc3)cc2)n1-c1ccccc1F (stereo not shown) [Example 236] has an IC50 of 940 nM.
In the case of Fc1ccccc1-n1c(CN2CCc3sccc3C2)nnc1-c1ccc(-c2ccccc2)cc1 [Example 202], the IC50 is reported as 1600 nM.
c1ccc(-c2ccc(-c3nnc(-c4ccco4)n3-c3ccccc3)cc2)cc1 [Compound 2, 3-(biphenyl-4-yl)-5-(furan-2-yl)-4-phenyl-4H-1,2,4-triazole, reference compound] gave an IC50 of 4600 nM.
COCCN(C)c1nnc(-c2ccc(-c3ccccc3)nc2)n1-c1ccccc1C#N [Example 8, 2-{3-[N-(2-Methoxyethyl)-N-methylamino]-5-(6-phenylpyridin-3-yl)-4H-1,2,4-triazol-4-yl}benzonitrile] gave an IC50 of 250 nM.
With COCCN(C)c1nnc(-c2ccc(-c3ccccc3)nc2)n1-c1cccc2nonc12 [Example 9, 4-(2,1,3-Benzooxadiazol-4-yl)-N-(2-methoxyethyl)-N-methyl-5-(6-phenylpyridin-3-yl)-4H-1,2,4-triazol-3-ylamine] the IC50 was 330 nM.
Cc1nnc(-c2ccc(-c3cccs3)cc2)n1-c1ccccc1F [Example 10, 4-(2-Fluorophenyl)-3-methyl-5-(4-thiophen-2-ylphenyl)-4H-1,2,4-triazole] showed an IC50 of 200 nM.
CC(C)c1nnc(-c2ccc(-c3ccccc3)nc2)n1-c1cccc2nonc12 [Example 2, 4-[3-Isopropyl 5-(6-phenylpyridin-3-yl)-4H-1,2,4-triazol-4-yl]-2,1,3-benzooxadiazole] showed an IC50 of 100 nM.
With COc1ccccc1-n1c(C)nnc1-c1ccc(-c2ccccc2)cc1 [Compound 1, 3-(biphenyl-4-yl)-4-(2-methoxyphenyl)-5-methyl-4H-1,2,4-triazole, reference compound] the IC50 was 1000 nM.
Work on CC(C)c1nnc(-c2cnc(-c3ccccc3)c(Cl)c2)n1-c1c(F)cccc1F [Example 112] yielded an IC50 of 1000 nM.

System: not given
Assay: not given
Settings: not given
With CSc1nnc(-c2ccc(-c3ccccc3)cc2)n1-c1ccccc1F [Example 12, 3-Biphenyl-4-yl-4-(2-fluorophenyl)-5-methylsulfanyl-4H-1,2,4-triazole] the melting point was 199 to 200 °C.
